These results are taken from patent publication EP2951180B1, “2,6,7,8 SUBSTITUTED PURINES AS HDM2 INHIBITORS” (Merck Sharp & Dohme Corp., priority 2013, dated 2014).

The structures appear in SMILES notation. Where two headings read alike, the source gives them in different places.

In this experiment the target is T1, HDM2 (Homo sapiens, UniProt Q00987).
T1 construct: Thioredoxin (N); made in house; host or cells: E. coli strain BL21(DE3)Rosetta
As to the kind of experiment: HDM2 FRET assay (inhibition of binding of FITC labeled p53-pocket peptide to HDM2). Particulars: read-out: FRET IC50. In short, it runs like this:
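Final: 0.5 nM His-HDM2, 3 nM FITC peptide, 0.25 nM Tb anti-His Ab; PBS, 0.01% BSA, 0.01% Tween-20; 0.1% DMSO.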

Where [1] appears, read: 0.5 nM HDM2 (residues 17 to 125), 3nM peptide, two hour incubation at room temperature.

T1 sequence (Q00987 17-125): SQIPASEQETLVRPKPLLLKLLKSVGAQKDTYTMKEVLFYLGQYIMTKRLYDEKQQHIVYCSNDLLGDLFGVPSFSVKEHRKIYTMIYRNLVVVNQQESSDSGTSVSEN

In general, IC50 refers to the concentration needed to halve the response being measured. Consider `C[C@@H](Nc1nc(-c2noc(=O)[nH]2)nc2nc(N3CCCCC3C3CCCCC3)n(C[C@H]3CC[C@H](C)CC3)c12)C1CCC1` (stereo partly drawn) [Example 11.5, 3-(6-(((R)-1-cyclobutylethyl)amino)-8-(2-cyclohexylpiperidin-1-yl)-7-((trans-4-methylcyclohexyl)methyl)-7H-purine-2-yl)-1,2,4-oxadiazol-5(4H)-one], for which, under “Table 11”, the 50% inhibitory concentration (IC50) is 450 nM. In the case of `CC(C)c1ccnc(-c2nc3nc(CNS(C)(=O)=O)nc(N[C@H](C)C4CCC4)c3n2C[C@H]2CC[C@H](C)CC2)c1` [Example 12.9, N-[(6-{[(1R)-1-cyclobutylethyl]amino}-7-[(trans-4-methylcyclohexyl)methyl]-8-[4-(propan-2-yl)pyridin-2-yl]-7H-purin-2-yl)methyl]methanesulfonamide], the IC50 under setting [1] amounted to 374 nM. Still for that read-out and setting: the result for `C[C@@H]1OCCN(c2nc3nc(-c4noc(=O)[nH]4)nc(-c4cccc(Cl)c4)c3n2C[C@H]2CC[C@H](C)CC2)[C@@H]1c1ccccc1` [Example 16.126, 3-{6-(3-chlorophenyl)-7-[(trans-4-methylcyclohexyl)methyl]-8-[(2S,3R)-2-methyl-3-phenylmorpholin-4-yl]-7H-purin-2-yl}-1,2,4-oxadiazol-5(4H)-one] reads 85.6 nM. Regarding `C[C@H]1CC[C@H](Cn2c(N3CCOC[C@H]3c3ccccc3)nc3nc(-c4n[nH]c(=O)o4)nc(Oc4ccc(Cl)cn4)c32)CC1` [Example 25.3, 5-{6-[(5-chloropyridin-2-yl)oxy]-7-[(trans-4-methylcyclohexyl)methyl]-8-[(3R)-3-phenylmorpholin-4-yl]-7H-purin-2-yl}-1,3,4-oxadiazol-2(3H)-one], under “Table 25”, the IC50 was 20.1 nM. Consider `C[C@@H](Nc1nc(C(=O)O)nc2nc(N3CCCC34CCc3ccccc34)n(Cc3ccc(C(F)(F)F)cc3)c12)C1CCC1` (stereo partly drawn) [Example 9.74, 6-{[(1R)-1-cyclobutylethyl]amino}-8-(2,3-dihydro-1'H-spiro[indene-1,2'-pyrrolidin]-1'-yl)-7-[4-(trifluoromethyl)benzyl]-7H-purine-2-carboxylic acid], for which, under “Table 9”, the IC50 amounted to 12.9 nM. Take `C[C@@H](Nc1nc(-c2noc(=O)[nH]2)nc2nc(C3(c4nccs4)CC3)n(C[C@H]3CC[C@H](C)CC3)c12)C1CCC1` [Example 22.59, 3-(6-{[(1R)-1-cyclobutylethyl]amino}-7-[(trans-4-methylcyclohexyl)methyl] -8-[1-(1,3-thiazol-2-yl)cyclopropyl]-7H-purin-2-yl)-1,2,4-oxadiazol-5(4H)-one]: where the note is “Table 22”, the IC50 worked out at 2.3 nM.

As to `C[C@H]1CC[C@H](Cn2c(C3(F)CCCCC3)nc3nc(-c4noc(=O)[nH]4)nc(-c4cncc(Cl)c4)c32)CC1` [Example 23.39, 3-{6-(5-chloropyridin-3-yl)-8-(1-fluorocyclohexyl)-7-[(trans-4-methylcyclohexyl)methyl] -7H-purin-2-yl}-1,2,4-oxadiazol-5(4H)-one], the IC50 (Table 23) worked out at 18.1 nM.

Take `C[C@@H](Nc1nc(C(=O)O)nc2nc(C(=O)NCC3CC3)n(Cc3ccc(C(F)(F)F)cc3)c12)C1CCC1` [Example 10.17, (R)-6-((1-Cyclobutylethyl)amino)-8-((cyclopropylmethyl)carbamoyl)-7-(4-(trifluoromethyl)benzyl)-7H-purine-2-carboxylic acid]: for the setting “Table 10”, the IC50 was 67.7 nM. Take `C[C@@H]1COCCN1c1nc2nc(-c3n[nH]c(=O)o3)nc(-c3cccc(Cl)c3)c2n1C[C@H]1CC[C@H](C)CC1` [Example 16.7, 5-(6-(3-chlorophenyl)-7-(((trans)-4-methylcyclohexyl)methyl)-8-((R)-3-methylmorpholino)-7H-purin-2-yl)-1,3,4-oxadiazol-2(3H)-one]: the IC50 under setting [1] was determined as 14.5 nM. Same read-out and setting: the result for `C[C@@H](Nc1nc(S(=O)(=O)CCO)nc2nc(N3CCOC[C@H]3c3ccccc3)n(C[C@H]3CC[C@H](C)CC3)c12)C1CCC1` [Example 14.18, 2-[(6-{[(1R)-1-cyclobutylethyl]amino} -7-[(trans-4-methylcyclohexyl)methyl]-8-[(3R)-3-phenylmorpholin-4-yl]-7H-purin-2-yl)sulfonyl]ethanol] reads 6.94 nM. For the compound `C[C@@H](Nc1nc(C(=O)O)nc2nc(C3CCCC3c3ccccc3)n(Cc3ccc(C(F)(F)F)cc3)c12)C1CCC1` (single isomer, unassigned) [Example 21.5], the IC50 (Table 21) worked out at 26.5 nM. Still for that read-out and setting: the value for `C[C@@H](Nc1nc(C(=O)O)nc2nc(C3CCCC3c3ccccc3)n(Cc3ccc(C(F)(F)F)cc3)c12)C1CCC1` (single isomer, unassigned) [Example 21.6] was 1.36 nM. As for `Cc1cccc(-c2nc3nc(C(=O)O)nc(NC4CCCCC4C)c3n2Cc2ccc(Br)cc2)c1` (centres unmarked) [Example 6.9, 7-(4-bromobenzyl)-6-[(2-methylcyclohexyl)amino]-8-(3-methylphenyl)-7H-purine-2-carboxylic acid], the IC50 (Table 6) came out at 22.3 nM.

Consider `CC(C)c1ccnc(-c2nc3nc(C(=O)O)nc(N(C)[C@H](C)C4CCC4)c3n2C[C@H]2CC[C@H](C)CC2)c1` [Example 15.2, 6-(((R)-1-cyclobutylethyl)(methyl)amino)-8-(4-isopropylpyridin-2-yl)-7-((trans-4-methylcyclohexyl)methyl)-7H-purine-2-carboxylic acid], for which the IC50 under setting [1] worked out at 10.5 nM. Take `C[C@@H](Nc1nc(C(=O)O)nc2nc(C3CCCCC3c3ccccc3)n(Cc3ccc(C(F)(F)F)cc3)c12)C1CCC1` (stereo partly drawn) [Example 21.12, 6-{[(1R)-1-cyclobutylethyl]amino}-8-(2-phenylcyclohexyl)-7-[4-(trifluoromethyl)benzyl]-7H-purine-2-carboxylic acid]: for the setting “Table 21”, the 50% inhibitory concentration (IC50) stood at 4.57 nM. As to `CC(Nc1nc2nc(-c3noc(=O)[nH]3)nc(N[C@H](C)C3CCC3)c2n1C[C@H]1CC[C@H](C)CC1)c1ccncn1` (stereo partly drawn) [Example 11.89, 3-(6-{[(1R)-1-cyclobutylethyl]amino}-7-[(trans-4-methylcyclohexyl)methyl]-8-[(1-pyrimidin-4-ylethyl)amino]-7H-purin-2-yl)-1,2,4-oxadiazol-5(2H)-one], for the setting “Table 11”, the IC50 was 13.8 nM. In the case of `C[C@H]1CC[C@H](Cn2c(C3(F)CCCC3)nc3nc(-c4n[nH]c(=O)o4)nc(-c4cncc(Cl)c4)c32)CC1` [Example 23.40, 5-{6-(5-chloropyridin-3-yl)-8-(1-fluorocyclopentyl)-7-[(trans-4-methylcyclohexyl)methyl] -7H-purin-2-yl}-1,3,4-oxadiazol-2(3H)-one], the IC50 (Table 23) turned out to be 15 nM.

As to `C[C@@H](Nc1nc(S(C)(=O)=O)nc2nc(N3CCCCC3c3ccccc3)n(C[C@H]3CC[C@H](C)CC3)c12)C1CCC1` (single isomer, unassigned) [Example 14.10], the IC50 under setting [1] turned out to be 109 nM. `C[C@@H]1COCCN1c1nc2nc(-c3n[nH]c(=O)o3)nc(N[C@H](C)C3CCC3)c2n1C[C@H]1CC[C@H](C)CC1` [Example 11.97, 5-(6-{[(1R)-1-cyclobutylethyl]amino}-7-[(trans-4-methylcyclohexyl)methyl]-8-[(3R)-3-methylmorpholin-4-yl]-7H-purin-2-yl)-1,3,4-oxadiazol-2(3H)-one]: where the note is “Table 11”, the IC50 stood at 1.94 nM.

In the case of `C[C@@H](Nc1nc(-c2n[nH]c(=O)n2C)nc2nc(C3(c4ccccc4)CCC3)n(C[C@H]3CC[C@H](C)CC3)c12)C1CCC1` [Example 20.9, 5-[6-{[(1R)-1-cyclobutylethyl]amino}-7-[(trans-4-methylcyclohexyl)methyl]-8-(1-phenylcyclobutyl)-7H-purin-2-yl]-4-methyl-2,4-dihydro-3H-1,2,4-triazol-3-one], the IC50 (Table 20) stood at 84.4 nM.
